Assay [1] deals with primary human CD4+ T lymphocytes. Nature of the assay: CD3/CD28 costimulation assay, IL-2 release. It is filed as cell-based. Conditions: 48 h, IL-2 ELISA, read-out: IC50, inhibition of IL-2 release from stimulated CD4+ T lymphocytes. The protocol:
The assay is performed with freshly isolated primary human CD4+ T lymphocytes. CD4+ T lymphocytes from whole blood are prepared using negative selection as previously described (Hatzelmann and Schudt, J. Pharmacol. Exp. Ther. 2001; 297:267-279). In brief, peripheral blood mononuclear cells (PBMC) are isolated by density gradient centrifugation using a Percoll gradient (p= 1.077 g/ml). 1×10^7 PBMC were then resuspended in 30 μl of PBS containing 0.5% FCS and human CD4+ T lymphocytes are isolated by depletion of non CD4+ T cells. For this, non-CD4+ T cells are Indirectly magnetically labeled with 10 μl of a cocktail of biotin-conjugated monoclonal antibodies (against CD8, CD14, CD16, CD19, CD36, CD56, CD123, TCR γ/δ; MACS CD4+ T cell isolation kit II, Miltenyi Biotec), as primary labeling reagent, and anti-biotin monoclonal antibodies conjugated to MicroBeads, as secondary labeling reagent The magnetically labeled non-CD4+ T cells are depleted by retaining them on a MACS column in the magnetic field of a MACS separator (Miltenyi Biotec, Bergisch Gladbach, Germany) according to the manufacturer's instruction. CD4+ T cells are resuspended in RPM 11640 containing 10% heat-inactivated FCS, 2 mM L-glutamine, 100 U/ml penicillin and 100 μg/ml streptomycin (Gibco Life Technologies).
2×10^5 CD4+ T cells in a total assay volume of 200 μl are stimulated via the T-cell receptor and the costimulatory molecule CO28 by using corresponding selective mAbs as previously described (Hatzelmann and Schudt, J. Pharmacol. Exp. Ther. 2001; 297:267-279). The assay is performed in 96 well tissue culture plates (655180, flat bottom, Greiner, Frickenhausen, Germany). Cells were maintained at 37° C. in a humidified atmosphere of 5% CO2 in an incubator (type BB6220 CU, Heraeus Instruments, Hanau, Germany). For determination of IL-2 level, all assays are performed in duplicate, and after 48 h of growth, supernatants are removed, pooled in 96 well plates (650101, U-shape, Greiner) and stored at −20° C. before measurement of IL-2 with a commercially available enzymimmunoassay kit from Coulter-Immunotech Diagnostics (Marseille, France) according to the manufacturer's instruction. For each experiment the appropriate dilution factor for IL-2 is determined. Dilutions are performed in diluent D (Coulter-Immunotech Diagnostics) and IL-2 for one condition is determined from the pool fraction in duplicate in a ELISA-reader (Rainbow, Tecan, Crailsheim, Germany) at 450 nm.
To investigate the effect of a test compound on the IL-2 release of stimulated CD4+ T cells, six three-fold dilution steps in duplicates per test compound are performed (final DMSO concentration 0.1%). […] The inhibition obtained In the presence of a test compound is calculated as percent inhibition of the high control. […]
Background: In an ELISA, binding on a coated surface is turned into a signal by an enzyme label.

Another assay deals with T1, PKCβ1 (Homo sapiens, UniProt P05771).
T1 construct: purchased Panvera
T1 sequence (P05771 whole entry): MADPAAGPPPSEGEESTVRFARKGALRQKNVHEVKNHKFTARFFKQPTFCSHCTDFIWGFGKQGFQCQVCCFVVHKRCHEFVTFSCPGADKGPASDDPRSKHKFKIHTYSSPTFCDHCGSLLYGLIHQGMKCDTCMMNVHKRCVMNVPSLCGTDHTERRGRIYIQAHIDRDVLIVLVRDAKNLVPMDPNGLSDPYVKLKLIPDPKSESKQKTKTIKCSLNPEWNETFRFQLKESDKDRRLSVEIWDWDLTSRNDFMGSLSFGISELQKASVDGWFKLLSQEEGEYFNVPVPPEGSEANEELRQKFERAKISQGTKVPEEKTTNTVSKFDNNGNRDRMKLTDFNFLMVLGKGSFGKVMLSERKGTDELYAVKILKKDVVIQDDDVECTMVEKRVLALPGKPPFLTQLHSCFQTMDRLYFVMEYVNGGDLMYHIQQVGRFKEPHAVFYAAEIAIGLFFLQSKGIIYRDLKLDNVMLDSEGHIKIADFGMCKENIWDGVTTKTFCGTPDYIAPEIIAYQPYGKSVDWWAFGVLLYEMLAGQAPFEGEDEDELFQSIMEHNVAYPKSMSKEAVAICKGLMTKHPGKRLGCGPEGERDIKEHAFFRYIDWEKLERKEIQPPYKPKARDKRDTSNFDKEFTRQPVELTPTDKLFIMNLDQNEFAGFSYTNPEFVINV
Nature of the assay: Protein Kinase Cβ1 assay (SPA). Format: biochemical. To be noted: human recombinant PKCβ1, SPA, biotinylated PKCα pseudosubstrate, 0.5 mM CaCl2; read-out: IC50, inhibition of PKC β1. The protocol:
(§1) The compounds of formula 1 are tested for their activity on different protein kinases and PKC isoforms using a scintillation proximity assay (SPA, Amersham International plc). ^33P-labeled peptides are captured onto streptavidin coated yttrium silicate SPA beads. β-particles, emitted from the captured ^33P-labeled substrate in close proximity to the bead are able to excite the scintillant, resulting in the generation of quantifiable light. The assay is performed in a 96-well polystyrene microtiterplate (1450-514, Isoplates, Wallac, Turku, Finland). The reaction mixture (50 μl) contains 10 μl of the test compound together with 10 μl of the relevant kinase, diluted in the relevant dilution buffer, 5 μl of 10 μM phorbol myristate acetate (PMA) in H2O, 5 μl of 1.6 mM phosphatidylserine (Sigma-Aldrich Chemie GmbH, Stein-heim, Germany) in 20 mM Tris/HCL buffer pH 7.4, 5 μl of 0.3% BSA in H2O, 5 μl of 30 μM relevant substrate and 10 μl of 5 μM ATP and 0.1 μCi of ^33P-ATP (Amersham, Freiburg, Germany) in 200 mM Tris/HCL pH 7.5 and 200 mM MgCl2. Incubation is performed for 40 min at room temperature (RT) without shaking. Reaction is stopped by adding 150 μl of cold stop solution containing 10 mM ATP, 5 mM EGTA pH 7.5, 0.1% Triton X-100 and 0.2 mg streptavidin coated yttrium silicate SPA beads (Amersham, RPNQ 0012). The sealed plate is incubated for 60 min at RT. Thereafter the MTP is counted in a Microbeta Jet (Wallac). IC50 measurement is performed on a routine basis by incubation a serial dilution of inhibitor at concentrations ranging between 0.01 and 100 μM according to the method described above. Background values are the signals of the reaction mixture without addition of the relevant kinase and are subtracted from all values. 100% values are the signals of the reaction mixture without addition of inhibitors.
(§2) Dependent on the efficacy of the inhibitors In the various test systems, corresponding IC50 values are calculated from concentration-inhibition curves by nonlinear regression analysis using the program GraphPad Prism (GraphPad Software Inc., San Diego, Calif.).
Human recombinant PKCβ1 was obtained from Panvera and is used under the assay conditions as described above (Section A.1). The enzyme is diluted in PKC dilution buffer containing 1 mM Hepes pH 7.4, 0.5 mM DTT and 0.001% Triton X-100. The assay additionally contains 0.5 mM CaCl2. The kinase reaction is performed with the biotinylated PKCα pseudosubstrate solved in H2O. The examples 29, 45, 52, 128 and 139 inhibit PKC β1 in this assay with an IC50 between 2 and 40 μM.

In a further assay the target is T2, PKCη (Homo sapiens, UniProt P24723).
T2 construct: made in house; host or cells: Sf21 insect cells
T2 sequence (P24723 whole entry): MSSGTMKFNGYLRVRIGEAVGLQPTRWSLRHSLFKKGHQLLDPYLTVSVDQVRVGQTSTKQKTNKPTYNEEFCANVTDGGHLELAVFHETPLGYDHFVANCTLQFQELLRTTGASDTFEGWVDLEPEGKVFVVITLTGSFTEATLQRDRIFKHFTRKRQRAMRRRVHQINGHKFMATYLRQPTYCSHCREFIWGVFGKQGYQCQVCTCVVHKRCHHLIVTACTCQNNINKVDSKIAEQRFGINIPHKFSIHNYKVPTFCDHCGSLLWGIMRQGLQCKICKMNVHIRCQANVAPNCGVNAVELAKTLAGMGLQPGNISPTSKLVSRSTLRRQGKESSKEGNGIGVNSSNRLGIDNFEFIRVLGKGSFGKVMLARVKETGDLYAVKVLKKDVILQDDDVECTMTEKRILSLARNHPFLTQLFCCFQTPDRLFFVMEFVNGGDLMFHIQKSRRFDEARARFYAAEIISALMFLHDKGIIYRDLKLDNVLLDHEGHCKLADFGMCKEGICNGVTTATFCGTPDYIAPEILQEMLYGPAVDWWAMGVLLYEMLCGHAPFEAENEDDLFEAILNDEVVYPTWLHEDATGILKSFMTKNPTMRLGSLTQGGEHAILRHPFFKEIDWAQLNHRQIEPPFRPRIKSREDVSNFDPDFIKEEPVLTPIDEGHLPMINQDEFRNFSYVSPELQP
Nature of the assay: Protein Kinase C η assay (SPA). Format: biochemical. To be noted: human recombinant PKCη from Sf21 insect cells, read-out: IC50, inhibition of PKC η. The protocol:
as §1, §2
Human recombinant nickel bead purified PKCη from Sf21 insect cells is used under the assay conditions as described above (Section A.1). The enzyme is diluted in PKC dilution buffer containing 1 mM Hepes pH 7.4, 0.5 mM DTT and 0.001% Triton X-100. The kinase reaction is performed with the biotinylated PKCη pseudosubstrate solved in H2O. The examples 52, 55, 118 and 135 inhibit PKC η in this assay with an IC50 between 6 and 50 μM.

The next assay deals with responder T cells. Nature of the assay: Mixed lymphocyte reaction (MLR), T cell proliferation. To be noted: [3H]thymidine incorporation after 48 h, read-out: IC50, inhibition of MLR-mediated T-cell proliferation. It is filed as cell-based. The protocol:
For MLR cultures 4×10^5 responder T cells are incubated in duplicates with 2×10^5 mitomycin C-treated allogeneic stimulator T cells in a total volume of 200 μl RPMI 1640 medium supplemented with 10% FCS, 2 mM L-glutamine, 100 U/ml penicillin and 100 μg/ml streptomycin (Gibco Life Technologies) in 96 well tissue culture plates (655180, flat bottom, Greiner). Cells are maintained at 37° C. in a humidified atmosphere of 5% CO2. After 48 h of growth, cells are pulsed with 1 μCi [^3H]thymidine and incorporation of [^3H]thymidine is measured with a Topcount radioactive counter (Packard). To investigate the effect of a test compound on MLR-mediated T cell proliferation six three-fold dilution steps in duplicates per test compound are performed (final DMSO concentration 0.1%). Low control values are the proliferation of responder cells alone; high controls are from mixed lymphocyte cells without any test samples. Low controls are subtracted from all values. The inhibition obtained in the presence of a test compound is calculated as percent Inhibition of the high control. The concentration of test compounds resulting in 50% inhibition (IC50) is determined from the dose-response curves. The examples 91, 128, 133 and 137 inhibit MLR-mediated T-cell proliferation in this assay with an IC50<1 μM.

The next assay has as its target T3, PKCθ (Homo sapiens, UniProt Q04759).
T3 construct: made in house; host or cells: Sf21 insect cells
Kind of assay: Protein Kinase C θ assay (SPA). Conditions: human recombinant PKCθ from Sf21 insect cells, read-out: IC50, inhibition of PKC θ. It is filed as biochemical. The protocol: as §1, §2
Human recombinant nickel bead purified PKCθ from Sf21 insect cells is used under the assay conditions as described above (Section A.1). The enzyme is diluted in PKC dilution buffer containing 1 mM Hepes pH 7.4, 0.5 mM DTT and 0.001% Triton X-100. The kinase reaction is performed with the biotinylated PKCθ pseudosubstrate solved in H2O. The examples 8, 22, 46, 115, 118 and 161 inhibit PKC 9 in this assay with an IC50<1 μM.

Another assay deals with T4, PKCδ (Homo sapiens, UniProt Q05655).
T4 construct: purchased Panvera
T4 sequence (Q05655 whole entry): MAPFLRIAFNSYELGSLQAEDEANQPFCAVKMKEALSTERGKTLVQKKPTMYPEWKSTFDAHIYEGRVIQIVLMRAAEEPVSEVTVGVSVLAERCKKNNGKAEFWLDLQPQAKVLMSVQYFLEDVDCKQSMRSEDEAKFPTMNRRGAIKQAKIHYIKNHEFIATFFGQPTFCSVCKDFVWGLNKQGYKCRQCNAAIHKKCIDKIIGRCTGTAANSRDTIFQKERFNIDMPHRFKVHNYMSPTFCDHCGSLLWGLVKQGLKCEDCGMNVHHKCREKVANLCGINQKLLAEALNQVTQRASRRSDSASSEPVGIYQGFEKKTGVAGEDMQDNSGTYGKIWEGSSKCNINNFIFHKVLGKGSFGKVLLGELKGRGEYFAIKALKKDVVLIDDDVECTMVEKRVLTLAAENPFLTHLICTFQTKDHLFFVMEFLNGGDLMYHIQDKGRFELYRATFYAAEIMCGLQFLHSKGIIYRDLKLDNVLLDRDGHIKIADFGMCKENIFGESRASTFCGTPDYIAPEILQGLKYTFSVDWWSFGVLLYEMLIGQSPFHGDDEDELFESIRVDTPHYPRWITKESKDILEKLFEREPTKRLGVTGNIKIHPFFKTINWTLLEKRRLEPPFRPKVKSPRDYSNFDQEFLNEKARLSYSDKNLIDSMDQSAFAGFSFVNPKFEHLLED
Kind of assay: Protein Kinase C δ assay (SPA). To be noted: human recombinant PKCδ, PKCη pseudosubstrate, read-out: IC50, inhibition of PKC δ. It is filed as biochemical. The protocol:
as §1
Dependent on the efficacy of the inhibitors In the various test systems, corresponding IC50 values are calculated from concentration-inhibition curves by nonlinear regression analysis using the program GraphPad Prism (GraphPad Software Inc., San Diego, Calif.). […]

Structures are written as SMILES. Where a name gives a salt, the structure may show the parent alone.

T3 sequence (Q04759 whole entry): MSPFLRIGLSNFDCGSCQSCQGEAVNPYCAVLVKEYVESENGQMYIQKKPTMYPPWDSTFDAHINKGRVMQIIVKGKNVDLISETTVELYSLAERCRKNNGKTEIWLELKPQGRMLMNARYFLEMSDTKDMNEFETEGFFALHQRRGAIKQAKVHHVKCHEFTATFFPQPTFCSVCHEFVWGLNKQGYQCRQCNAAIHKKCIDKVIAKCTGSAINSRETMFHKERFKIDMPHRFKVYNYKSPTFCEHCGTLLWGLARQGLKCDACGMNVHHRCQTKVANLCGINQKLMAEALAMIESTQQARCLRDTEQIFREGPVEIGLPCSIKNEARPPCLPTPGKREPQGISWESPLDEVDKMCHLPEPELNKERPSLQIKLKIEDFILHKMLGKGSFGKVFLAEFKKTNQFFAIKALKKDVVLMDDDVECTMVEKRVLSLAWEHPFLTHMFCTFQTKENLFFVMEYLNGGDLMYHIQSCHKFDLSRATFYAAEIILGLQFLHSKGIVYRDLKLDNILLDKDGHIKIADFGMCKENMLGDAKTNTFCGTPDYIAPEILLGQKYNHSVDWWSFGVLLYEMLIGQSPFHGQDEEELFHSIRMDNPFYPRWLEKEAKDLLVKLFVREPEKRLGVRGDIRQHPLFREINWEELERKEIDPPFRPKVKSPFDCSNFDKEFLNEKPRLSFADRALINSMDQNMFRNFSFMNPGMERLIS

Turning to `O=S(=O)(Nc1ccc(Nc2cc(-c3cccc4ccccc34)ncn2)cc1)c1ccccc1F` [Example 13, 2-Fluoro-N-[4-(6-naphthalen-1-yl-pyrimidin-4-ylamino)-phenyl]-benzenesulfonamide], the IC50 in assay [1] was in the range of 1 to 9 µM.

`COc1cccc(-c2cc(Nc3ccc(NS(=O)(=O)c4ccc(C#N)cc4)cc3)ncn2)c1` [Example 19, 4-Cyano-N-{4-[6-(3-methoxy-phenyl)-pyrimidin-4-ylamino]phenyl}benzenesulfonamide]: the IC50 in assay [1] lay within 1 to 9 µM. Same read-out and setting: as for `COc1cccc(-c2cc(Nc3ccc(NS(=O)(=O)c4ccccc4F)cc3)ncn2)c1` [Example 20, 2-Fluoro-N-{4-[6-(3-methoxy-phenyl)-pyrimidin-4-ylamino]-phenyl}-benzenesulfonamide], the figure is 1 to 9 µM. Turning to `COc1ccc(S(=O)(=O)Nc2ccc(Nc3cc(-c4ccc(OCCN5CCN(C)CC5)cc4)ncn3)cc2)cc1` [Example 52, 4-Methoxy-N-[4-(6-{4-[2-(4-methyl-piperazin-1-yl)-ethoxy]-phenyl}-pyrimidin-4-ylamino)-phenyl]-benzenesulfonamide], the IC50 was 2 to 40 µM on PKCβ1 and 6 to 50 µM at PKCη.

Turning to `CN1CCC(COc2ccc(-c3cc(Nc4ccc(NS(=O)(=O)c5ccc(F)cc5F)cc4)ncn3)cc2)CC1` [Example 91, 2,4-Difluoro-N-(4-{6-[4-(1-methyl-piperidin-4-ylmethoxy)-phenyl]-pyrimidin-4-ylamino}-phenyl)-benzenesulfonamide formic acid salt], the IC50 in the assay on responder T cells was less than 1 µM.

Turning to `O=S(=O)(Nc1ccc(Nc2cc(-c3ccc4[nH]ccc4c3)ncn2)cc1)c1ccc(F)cc1F` [Example 118, 2,4-Difluoro-N-{4-[6-(1H-indol-5-yl)-pyrimidin-4-ylamino]-phenyl}-benzenesulfonamide], the IC50 is less than 1 µM on PKCθ and 6 to 50 µM at PKCη. For `COc1ccc(S(=O)(=O)Nc2ccc(Nc3cc(-c4ccc5c(ccn5CCN(C)C)c4)ncn3)cc2)cc1` [Example 132, N-(4-{6-[1-(2-Dimethylamino-ethyl)-1H-indol-5-yl]-pyrimidin-4-ylamino}-phenyl)-4-methoxy-benzenesulfonamide], the IC50 on PKCδ was 2 to 18 µM. As for `CN(C)CCCn1ccc2cc(-c3cc(Nc4ccc(NS(=O)(=O)c5ccc(F)cc5F)cc4)ncn3)ccc21` [Example 133, N-(4-{6-[1-(3-Dimethylamino-propyl)-1H-indol-5-yl]-pyrimidin-4-ylamino}-phenyl)-2,4-difluorobenzenesulfonamide], the IC50 in the assay with responder T cells is less than 1 µM.

On to `Cc1ccc(S(=O)(=O)Nc2ccc(Nc3cc(-c4ccc5c(ccn5CCN(C)C)c4)ncn3)cc2)cc1` [Example 136, N-(4-{6-[1-(2-Dimethylamino-ethyl)-1H-indol-5-yl]pyrimidin-4-ylamino}-phenyl)-4-methyl-benzenesulfonamide], for which the IC50 in assay [1] was 1 to 9 µM. Take `CN(C)CCCn1ccc2cc(-c3cc(Nc4ccc(NS(=O)(=O)c5ccc(F)c(Cl)c5)cc4)ncn3)ccc21` [Example 137, 3-Chloro-N-(4-{6-[1-(3-dimethylamino-propyl)-1H-indol-5-yl]-pyrimidin-4-ylamino}-phenyl)-4-fluoro-benzenesulfonamide]: the IC50 in the assay on responder T cells is less than 1 µM.

With `CN(C)CCn1ccc2cc(-c3cc(Nc4ccc(NS(=O)(=O)c5ccc(F)c(Cl)c5)cc4)ncn3)ccc21` [Example 138, 3-Chloro-N-{4-[6-[1-(2-dimethylamino-ethyl)-1H-indol-5-yl]pyrimidin-4-ylamino]-phenyl}-4-fluoro-benzenesulfonamide], at PKCδ, the IC50 lay in the range of 2 to 18 µM.

These data come from US20080242681A1, “N-4-(6-(Hetero)Aryl-Pyrimidin-4-Ylaminophenyl)-Benzenesulfonamides as Kinase Inhibitors” (Altana Pharma AG, priority 2004, published 2008).
